{"source": "patent US20110294741A1", "about": "“USE OF COMPOUNDS IN THE TREATMENT OF TAU-INDUCED CYTOTOXICITIES” (Bioalvo-Servicos, Investigacao e Desenvolvimento em …, priority 2008, published 2011)", "test_system": "Tau P301L ([…] I P301L cells)", "experiment": "Yeast platform DISAGGREGATOR I P301L, ER stress GFP reporter (target induced)", "type": "cell-based", "conditions": "for decrease of the fluorescent signal: first assay (FIG. 9); for decrease of the stress: second assay (FIG. 11)", "experimental": "Cells were grown in 200 microlitre minimum medium supplemented with 20 g/L galactose, at 30° C., with agitation at 600 rpm;\nKTP-NH2 was further tested on a general inducer of the same pathological mechanism to assess its specificity for tau and compared with two control KTP derivatives which were tested on the same platform.\nThe Endoplasmic Reticulum (ER) fulfils multiple cellular functions, the main one being the proper folding of proteins destined for secretion or display on the cell surface. Many disturbances cause accumulation of unfolded proteins in the ER, triggering an evolutionarily conserved response, termed the unfolded protein response (UPR) or ER stress. The initial intent of the UPR is to adapt to the changing environment, and re-establish normal ER function.\nIn parallel, the yeast platform DISAGGREGATOR I P301L comprises the same ER stress element operably linked to the same GFP reporter element and additionally expresses the exogenous protein TAU P301L which induces ER stress.\nUsing these two platforms in parallel, it is possible to identify compounds that reduce specifically the stress induced by the TAU P301L protein, and other compounds that are simply general ER stress reducers.\nDISAGGREGATOR I P301L cells were grown in 200 μl medium containing KTP-NH2 or control compounds (referred to as control 1 and control 2) at a concentration of 10 μM and 100 μM. No effect on the fluorescence could be detected for the control compounds, meaning that the two compounds are inefficient to reduce the stress triggered by the TAU P301L protein (FIGS. 7 and 8).\nDISAGGREGATOR I P301L cells were grown in 200 μl medium containing the KTP-NH2 at a concentration of 10 μM and 100 μM. DISAGGREGATOR I cells were grown in the same condition but subjected to an addition of 1 μg/mL of tunicamycin in order to induce ER stress chemically.\nThe inventors created a yeast-based screening application for the detection of compounds that act as modulators of the toxicity (neurodegeneration) for neurons (not pain) induced by the expression of tau P301L, a pathological isoform of tau protein. This yeast-based application is designated as DISAGGREGATOR I P301L and provides a valuable tool for the high throughput screening of tau modulators. It is a model-based system where the cellular environment produced upon P301L expression is recapitulated and cell toxicity is measured and quantified. Compounds that have the potential to modulate pathological pathways activated by the expression of P301L are detected through a reduction in the cytotoxic readout. Tau protein is expressed in central nerve cells and, consequently, tauopathies are diseases of the central nervous system. This implies that a therapeutic compound for tauopathies must be able to access the central nervous system by penetrating the blood-brain barrier. We tested KTP-NH2 in the DISAGGREGATOR P301L system. Results were very impressive for KTP-NH2 to be used as a drug for tau-associated pathologies. Therefore, after obtaining the proof of concept confirmation of KTP-NH2 potential as a tau modulator, we developed a series of derivatives with a higher plasma-stability. The present invention protects the use of KTP-NH2 and its derivatives in the treatment of tau-induced cytotoxicities."}
{"smiles": "N=C(N)NCCCC(NC(=O)C(N)Cc1ccc(O)cc1)C(N)=O", "note": "[KTP-NH2, L-Tyr-L-Arg-NH2]", "values": [{"measurement": "effect on the fluorescence (ER stress triggered by TAU P301L)", "setting": "10 μM and 100 μM", "result": "decreased the fluorescence signal"}, {"measurement": "decrease of the fluorescent signal", "setting": "10 μM", "result": 40, "unit": "%"}, {"measurement": "decrease of the stress", "setting": "10 μM", "result": 50, "unit": "%"}, {"measurement": "residual ER stress signal, of the maximum level without compound", "setting": "100 μM, average of two experiments (FIG. 13)", "result": "~40", "unit": "%"}, {"measurement": "decrease of the fluorescent signal", "setting": "100 μM", "result": 65, "unit": "%"}, {"measurement": "decrease of the stress", "setting": "100 μM", "result": 50, "unit": "%"}]}
